Columns and labels:
Cdk2(T182C) (C177A) = molecular target: T1, Cdk2(T182C) (C177A) (Homo sapiens, UniProt P24941, C177A/T182C); test: Kinetic thiol consumption assay with Cdk2 mutant T182C; format: binding; parameters: key to Rate enhancement, Cdk2 T182C: rate constant with Cdk2 ÷ rate constant with model thiol (fold); settings: additional mutation C177A; for Rate constant with Cdk2 T182C: Protein: Cdk2, cysteine position T182C, in h^-1
T1 construct: poly-histidine; made in house; host or cells: E. coli
Protocol: (§1) To wells containing 150 μL thiol (Cdk2 or model thiol) (5 μM) in degassed phosphate buffer (pH 8) was added immobilized TCEP beads (2% v/v).
(§2) After incubation of the fluorescence plates for 1 hour at room temperature, fluorescence measurements (excitation/emission of 380/470 nm) were taken on a PerkinElmer EnVision multilabel plate reader and processed with EnVision Workstation version 1.12.
(§3) Fluorescence measurements were normalized against a DMSO/thiol only control and plotted against time.
(§4) Rate constants were calculated using GraphPad software Prism version 6 by fitting a first order exponential decay to the data. The rate constant for each acrylamide with Cdk2 was divided by the rate constant for that fragment with the model thiol to provide the rate enhancement for each ligand candidate.
(§5) A further set of set of additional Cdk2 mutants were screened, all containing the C177A mutation and therefore with only one cysteine on the surface: • F80C (without the K278C mutation) • H71C • S276C • N272 • T182C • R122C • S181C
(§6) Mutations were introduced by site-directed mutagenesis and the resulting cDNA was cloned into the pRSETA bacterial expression vector to generate a poly-histidine tagged Cdk2 fusion that was purified from E. coli using standard techniques.

Cdk2(R122C) (C177A) = molecular target: T2, Cdk2(R122C) (C177A) (Homo sapiens, UniProt P24941, C177A/R122C); test: Kinetic thiol consumption assay with Cdk2 mutant R122C; format: binding; parameters: key to Rate enhancement, Cdk2 R122C: rate constant with Cdk2 ÷ rate constant with model thiol (fold); settings: additional mutation C177A; for Rate constant with Cdk2 R122C: Protein: Cdk2, cysteine position R122C, in h-1
T2 construct: poly-histidine; made in house; host or cells: E. coli
Protocol: as §1, §2, §3, §4, §5, §6

Cdk2(N272C) (C177A) = molecular target: T3, Cdk2(N272C) (C177A) (Homo sapiens, UniProt P24941, C177A/N272C); test: Kinetic thiol consumption assay with Cdk2 mutant N272C; format: binding; parameters: key to Rate enhancement, Cdk2 N272: rate constant with Cdk2 ÷ rate constant with model thiol (fold); settings: for Rate enhancement, Cdk2 N272: Cdk2 N272, additional mutation C177A; for Rate constant with Cdk2 N272C: Protein: Cdk2, cysteine position N272C, additional mutation C177A, in h^-1
T3 construct: poly-histidine; made in house; host or cells: E. coli
Protocol: as §1, §2, §3, §4, §5, §6

Cdk2(C177A, F80C) = molecular target: T4, Cdk2(C177A, F80C) (Homo sapiens, UniProt P24941, C177A/F80C); test: Kinetic thiol consumption assay with Cdk2 mutant F80C, incl. kobs versus concentration (Kd, k2); format: binding; parameters: key to Rate enhancement, Cdk2 F80C: Cdk2 rate constant divided by model-thiol rate constant; settings: additional mutation C177A; for Rate constant with Cdk2 F80C: Protein: Cdk2, cysteine position F80C, in h^-1
T4 construct: poly-histidine; made in house; host or cells: E. coli
Protocol: Therefore the assay can be used to calculate both k2 and Kd by experimentally determining kobs at a suitable range of ligand candidate concentrations. Typically Kd and k2 would then be determined by fitting a hyperbolic curve to a plot of kobs against ligand candidate concentration (FIG. 9).
as §1, §2, §3, §4, §5, §6
Rate constants were calculated as described in the methodology section of Examples 1 and 2.

[1] = Kinetic thiol consumption assay with model thiol glutathione; format: physicochemical; parameters: Rate constant with glutathione (k(GSH)): unit not given here; settings: for Rate constant with Glutathione: Protein: Glutathione, cysteine position NA, in h-1; for Rate constant with glutathione (k(GSH)): 500 μM ligand, 5 μM thiol, phosphate buffer pH 8
Protocol: (§7) A library of 120 acrylamides was screened against a) human cyclin-dependent kinase 2 (Cdk2, which contains one surface exposed cysteine residue—C177), prepared by cloning cDNA into the pRSETA bacterial expression vector to generate a poly-histidine tagged Cdk2 fusion that was purified from E. coli using standard techniques, and b) a model thiol (specific details are given below). The structures of these 120 acrylamides are set out in Table 1, above.
as §1, §2, §3, §4
The model thiol in Example 1 is glutathione (GSH). Hits were defined as fragments where kCdk2/kGSH>5.8 (empirically determined as 3 standard deviations over the mean).

Cdk2(S276C) (C177A) = molecular target: T5, Cdk2(S276C) (C177A) (Homo sapiens, UniProt P24941, C177A/S276C); test: Kinetic thiol consumption assay with Cdk2 mutant S276C; format: binding; parameters: key to Rate enhancement, Cdk2 S276C: rate constant with Cdk2 ÷ rate constant with model thiol (fold); settings: additional mutation C177A; for Rate constant with Cdk2 S276C: Protein: Cdk2, cysteine position S276C, in h^-1
T5 construct: poly-histidine; made in house; host or cells: E. coli
Protocol: as §1, §2, §3, §4, §5, §6

Cdk2(S181C) (C177A) = molecular target: T6, Cdk2(S181C) (C177A) (Homo sapiens, UniProt P24941, C177A/S181C); test: Kinetic thiol consumption assay with Cdk2 mutant S181C; format: binding; parameters: key to Rate enhancement, Cdk2 S181C: rate constant with Cdk2 ÷ rate constant with model thiol (fold); settings: additional mutation C177A; for Rate constant with Cdk2 S181C: Protein: Cdk2, cysteine position S181C, in h^-1
T6 construct: poly-histidine; made in house; host or cells: E. coli
Protocol: as §1, §2, §3, §4, §5, §6

[2] = molecular target: T7, human cyclin-dependent kinase 2 (Cdk2) (Homo sapiens, UniProt P24941); test: Kinetic thiol consumption assay with wild type Cdk2 (C177); format: binding; parameters: key to Rate enhancement, Cdk2 WT: k(Cdk2) divided by k(model thiol); Rate constant with Cdk2 (k(Cdk2)): unit not given here; settings: for Rate enhancement, Cdk2 WT: no additional mutations; for Rate constant with Cdk2 WT: Protein: Cdk2, cysteine position WT, in h^-1; for Rate constant with Cdk2 (k(Cdk2)): 500 μM ligand, 5 μM thiol, phosphate buffer pH 8; for k(Cdk2)/k(GSH) rate enhancement: model thiol glutathione
T7 construct: poly-histidine; made in house; host or cells: E. coli
Protocol: as §7, §1, §2, §3, §4

Cdk2(H71C) (C177A) = molecular target: T8, Cdk2(H71C) (C177A) (Homo sapiens, UniProt P24941, C177A/H71C); test: Kinetic thiol consumption assay with Cdk2 mutant H71C; format: binding; parameters: key to Rate enhancement, Cdk2 H71C: rate constant with Cdk2 ÷ rate constant with model thiol (fold); settings: additional mutation C177A; for Rate constant with Cdk2 H71C: Protein: Cdk2, cysteine position H71C, in h^-1
T8 construct: poly-histidine; made in house; host or cells: E. coli
Protocol: as §1, §2, §3, §4, §5, §6

Structure (SMILES) | Rate enhancement, Cdk2 T182C (Cdk2(T182C) (C177A)) | Rate constant with Cdk2 T182C (Cdk2(T182C) (C177A)) | Rate enhancement, Cdk2 R122C (Cdk2(R122C) (C177A)) | Rate constant with Cdk2 R122C (Cdk2(R122C) (C177A)) | Rate enhancement, Cdk2 N272 (Cdk2(N272C) (C177A)) | Rate constant with Cdk2 N272C (Cdk2(N272C) (C177A)) | Rate enhancement, Cdk2 F80C (Cdk2(C177A, F80C)) | Rate constant with Cdk2 F80C (Cdk2(C177A, F80C)) | Rate constant with Glutathione [1] | Rate enhancement, Cdk2 S276C (Cdk2(S276C) (C177A)) | Rate constant with Cdk2 S276C (Cdk2(S276C) (C177A)) | Rate enhancement, Cdk2 S181C (Cdk2(S181C) (C177A)) | Rate constant with Cdk2 S181C (Cdk2(S181C) (C177A)) | Rate enhancement, Cdk2 WT [2] | Rate constant with Cdk2 WT [2] | Rate enhancement, Cdk2 H71C (Cdk2(H71C) (C177A)) | Rate constant with Cdk2 H71C (Cdk2(H71C) (C177A)) | Rate constant with glutathione (k(GSH)) [1] | Rate constant with Cdk2 (k(Cdk2)) [2] | k(Cdk2)/k(GSH) rate enhancement [2]
C=CC(=O)N1CCC2(CC1)NC(=O)C1(CCCCC1)N2 [CA-129/235] | 0.8826 | 0.009647 | 0.925 | 0.01011 | 0.3936 | 0.004302 | 0.1819 | 0.001988 | 0.01093 | 1.682 | 0.01838 | 0.2227 | 0.002434 | 0.2508 | 0.002741 | 0.03271 | 0.0003575 | – | – | –
CN(C#N)Cc1ccccc1 [EN009] | 1.07 | 0.006898 | 0.132 | 0.0008504 | 0 | – | 3.246 | 0.02092 | – | 0.921 | 0.005935 | 0.6302 | 0.004061 | 0 | – | 5.4624E−12 | 3.52E−14 | – | – | –
O=S1(=O)C=CC(Br)C1 (stereo not drawn) [EN010] | 4.219 | 2.544 | 0.3799 | 0.2291 | 0.198 | 0.1194 | 0.00861 | 0.005192 | 0.603 | 0.9531 | 0.5747 | 0.3144 | 0.1896 | 2.833 | 1.708 | 0.1025 | 0.06183 | – | – | –
C=CC(=O)N(Cc1ccco1)C12CC3CC(CC(C3)C1)C2 [CA-157] | 10.22 | 0.08469 | 0.376 | 0.003114 | 87.21 | 0.7224 | 0.165 | 0.001367 | 0.008283 | 68.22 | 0.5651 | 0.9237 | 0.007651 | 1.257 | 0.01041 | 1.058 | 0.008761 | 0.00399 | 0.00288 | 0.7234
C=CC(=O)N(CC(=O)N1CCCC1)CC1CCCO1 (stereo not drawn) [CA-080] | – | – | – | – | – | – | – | – | – | – | – | – | – | – | – | – | – | 0.00706 | 0.00195 | 0.2764
N#Cc1ccncn1 [EN007] | 0.9515 | 0.001386 | – | – | 0 | 0.001652 | 0.9144 | 0.001332 | – | 0 | – | – | – | 0 | – | 0 | – | – | – | –
Cn1cc(S(=O)(=O)N2CCOCC2)cc1C(=O)NC(=O)CCl [EN002] | 2.567 | 0.01298 | 0.1371 | 0.0006932 | 1.133 | 0.00573 | 49.31 | 0.2493 | – | 0 | – | 0.2957 | 0.001495 | 1.276 | 0.006451 | 7.5652E−12 | 3.825E−14 | – | – | –
FC(F)(F)c1cc(Cl)ncc1Br [EN008] | 0.1321 | 0.005911 | 0 | – | 0.2037 | 0.009116 | 4.64 | 0.2076 | – | 1.5439E−13 | 6.908E−15 | 0.02434 | 0.001089 | 0 | – | 0 | – | – | – | –

Source: patent US11415579B2, “Assay for measuring a rate of reaction between a target and a ligand candidate” (Imperial College Innovations Ltd., priority 2016, dated 2022)
